Results from US9480674B2, “Method and composition for treating acne” (THESAN PHARMACEUTICALS, INC., priority 2012, dated 2016).
Entries after “also recorded” stand apart in the source; their conditions may differ. Like-named read-outs stand apart in the source and are kept apart here.

Key:
[1] = tested on: CYP1A1 expression in sebaceous glands; assay: Focal expression of AhR activation (CYP1A1 immunohistochemistry) in sebaceous gland cell types of topically treated mouse ears
Text: The embodiment described here entails treating the ears of C57BL/6 mice via the topical route, following established protocols to determine dose-response and time-response relationships, with sebum reducing AhR pathway agonists previously characterized for their in vivo activation of the receptor, using, for example the EROD and CALUX methods which are widely used in this field (see Table 1).
Following topical treatment, the ears are sampled, and CYP1A1 expression is examined by immunohistochemical analysis using a specific antibody.
The study diagrammed in FIG. 1 and for which photomicrographs are provided in FIG. 2 entailed treating mice daily for one week with a topical AhR pathway agonist, with ears taken for examination at Day 7. Ears were recovered and fixed in formalin, paraffin embedded and then sections were prepared and positioned on slides for immunohistochemical staining. The specific antibody used in this instance was rabbit anti-rat CYP1A1 polyclonal antibody (Millipore AB1247). The AhR pathway agonists used in the example in FIG. 2 were as follows: • 1B) 6-formylindolo[3,2-b]carbozole (NSA4/FICZ); • 2B) 8,13-Dihydroindolo[2′,3′:3,4]pyrido[2,1-b]quinazolin-5(7H)-one (NSA1/rutecarpine); • 3B) 3-phenyl-1H-benzo[f]chromen-1-one (NSA2); • 4B)_2,3,7,8-tetrachlorodibenzo-p-dioxin (NSA3/TCDD).
In addition to the particular topography of the isthmus region, these cells are characterized by the expression of L-RIG1, a marker of isthmic multi-potent clonogenic cells (Jensen et al. (2009),).

[2] = tested on: FADS2, AWAT1, ELOVL3 mRNA; assay: Real-Time QRT-PCR of mRNA of sebogenic enzymes in ears of mice treated for five weeks; assay type: in vivo, C57BL/6 mice; conditions: mouse ears, 0.5% in acetone (TCDD 0.0005%), vs vehicle
Text: At the end of that time the animals were sacrificed and the ears removed for further analysis.

[3] = in vivo; cited from earlier work
sebum = assay: Sebosuppressive activity on human skin (sebumetric casual level, sebutape, clinical observation); assay type: in vivo, man; conditions: for Sebosuppressive activity in man (reduction in sebum): NSA-1, NSA-2, NSA-8, NSA-9 tested at 0.5%
Protocol: The sebum inhibition index is calculated by counting the number of mature and differentiated cells in relation to the total number of cells in the sebaceous glands. A decrease in mature and differentiated cells indicates blocking of sebogenesis. The effect on human skin is determined by sebumetric examination using what is known as the “casual level” (Dobrev (2007)).

sebaceous glands = assay: Dose effect in mice: sebosuppressive effect and tolerability of topical treatment of the ears; assay type: in vivo
Protocol: For these dose-effects tests, C57BL/6 mice were treated for three to five weeks, five days per week on the ears and in three concentrations, namely 0.1, 0.5, and 1% of NSA-2. The sebosuppressive effect was analyzed at the third week although expression thereof starts after one week.
Drug tolerability, in the absence of MADISH-type cyst production, was assessed after five weeks' treatment.

AhR (CYP1A1 induction) = target: T1, AhR (CYP1A1 induction) (Homo sapiens, UniProt P35869); assay: EROD (ethoxyresorufin-O-deethylase) assay, CYP1A1 induction as reporter of AhR activation in vitro; assay type: cell-based; conditions: at 10 μM
T1 construct: endogenous in cells
T1 sequence (P35869 11-848): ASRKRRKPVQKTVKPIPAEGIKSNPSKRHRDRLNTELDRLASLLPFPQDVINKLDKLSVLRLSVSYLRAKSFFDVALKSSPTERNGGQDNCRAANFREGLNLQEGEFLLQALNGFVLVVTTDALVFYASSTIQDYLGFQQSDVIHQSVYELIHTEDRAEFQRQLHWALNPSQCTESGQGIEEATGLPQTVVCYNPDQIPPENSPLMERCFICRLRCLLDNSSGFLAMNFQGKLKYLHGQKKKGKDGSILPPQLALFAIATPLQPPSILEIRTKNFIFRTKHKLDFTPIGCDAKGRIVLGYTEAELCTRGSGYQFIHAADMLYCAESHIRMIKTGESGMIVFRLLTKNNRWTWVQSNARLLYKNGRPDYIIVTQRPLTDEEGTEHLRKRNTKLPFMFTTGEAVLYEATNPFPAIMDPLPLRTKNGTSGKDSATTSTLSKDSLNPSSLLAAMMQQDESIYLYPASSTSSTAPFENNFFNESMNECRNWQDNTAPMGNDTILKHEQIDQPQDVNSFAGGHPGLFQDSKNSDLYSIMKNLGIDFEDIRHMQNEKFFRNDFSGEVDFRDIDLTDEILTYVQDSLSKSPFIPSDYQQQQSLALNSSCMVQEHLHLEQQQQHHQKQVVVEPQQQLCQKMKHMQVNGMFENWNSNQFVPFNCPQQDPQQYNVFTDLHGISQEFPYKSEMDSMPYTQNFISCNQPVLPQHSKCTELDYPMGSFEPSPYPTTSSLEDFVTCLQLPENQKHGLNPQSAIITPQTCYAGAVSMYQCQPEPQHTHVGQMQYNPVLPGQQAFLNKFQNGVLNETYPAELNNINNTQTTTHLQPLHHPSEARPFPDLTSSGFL
Text: As used herein, the term EROD refers to the ethoxyreorufin-O-deethylase (EROD) assay which monitors the induction of the xenobiotic-metabolizing enzyme cytochrome P-450 1A1(CYP1A1) and is a widely used as a reporter for measuring activation of the AhR in vitro (Zamaratskaia et al. (2009), Behnisch et al. (2001),)

[4] = in rodents; Adedoyin et al. (1993); cited from earlier work
[5] = Blood assay by HPLC in topically treated mice; assay type: in vivo, C57BL/6 mice; conditions: 5 nM sensitivity

SMILES: O=Cc1c2c(cc3c1=Nc1ccccc1-3)=Nc1ccccc1-2 [NSA 4, 6-formylindolo[3,2-b]carbazole]
- Activation of the AhR pathway (CYP1A1 staining) in the sebaceous cell sub-populations, stage reached ([1]; mouse, in vivo): limited distribution in the sebaceous glands when compared with NSA-2

SMILES: Clc1cc2c(cc1Cl)Oc1cc(Cl)c(Cl)cc1O2 [NSA 3, 2,3,7,8-tetrachlorodibenzo-p-dioxin]
- Inhibition of mRNA expression encoding the three sebogenic enzymes (FADS2, AWAT1, ELOVL3) [2]: degree of specific gene suppression seen with NSA-2 is equivalent to that seen with the structurally unrelated compound NSA-3
- Activation of the AhR pathway (CYP1A1 staining) in the sebaceous cell sub-populations, stage reached ([1]; mice, topical, first week of treatment): activate the AhR pathway in the four cell sub-populations within a period of less than one week
- half-life [3]: measureable in years
- Sebosuppressive activity in man (reduction in sebum) (sebum): strongest sebosuppressive activity in man

SMILES: COc1ccc2nc([S@@+]([O-])Cc3ncc(C)c(OC)c3C)[nH]c2c1 [NSA 7, (S)-5-methoxy-2-[(4-methoxy-3,5-dimethylpyridin-2-yl)methylsulfinyl]-3H-benzoimidazole]
- Activation of the AhR pathway (CYP1A1 staining) in the sebaceous cell sub-populations, stage reached ([1]; mouse, in vivo): only activates the AhR receptor pathways in Stage One of the cell sub-populations
- Sebosuppressive activity in man (sebum; tested at 8%): no sebosuppressive activity in man

SMILES: O=c1cc(-c2ccccc2)oc2c1ccc1ccccc12 [NSA-8, 2-phenyl-4H-benzo[h]chromen-4-one]
- Inhibition of mRNA expression encoding the three sebogenic enzymes (FADS2, AWAT1, ELOVL3) [2]: slightly stimulating effect
- Sebosuppressive activity in man (reduction in sebum) (sebum): neither 2-phenyl-4H-benzo[h]chromen-4-one nor 2-phenyl-4H-chromen-4-one exhibited any reduction in sebum

SMILES: O=c1cc(-c2ccccc2)oc2ccccc12 [NSA-9, 2-phenyl-4H-chromen-4-one]
- Inhibition of mRNA expression encoding the three sebogenic enzymes (FADS2, AWAT1, ELOVL3) [2]: no significant effect
- Sebosuppressive activity in man (reduction in sebum) (sebum): neither 2-phenyl-4H-benzo[h]chromen-4-one nor 2-phenyl-4H-chromen-4-one exhibited any reduction in sebum

SMILES: O=c1cc(-c2ccccc2)oc2ccc3ccccc3c12 [NSA 2, 3-phenyl-1H-benzo[f]chromen-1-one]
- Sebosuppressive effect in mice (active sebaceous glands, gland surface, ratios of sebocytes; FIGS. 5-8) (sebaceous glands; 0.1, 0.5 and 1%, ears, five days per week, analyzed at the third week): very marked effects; also recorded: a reduction in the differentiated compartment of the gland was observed
- MADISH-type cystic lesions (sebaceous glands; after five weeks' treatment, any concentration tested): No cystic lesion were observed
- Tolerability in mice (sebaceous glands; mouse, in vivo): good tolerability
- Inhibition of mRNA expression encoding the three sebogenic enzymes (FADS2, AWAT1, ELOVL3) [2]: major inhibition
- Activation of the AhR pathway (CYP1A1 staining) in the sebaceous cell sub-populations, stage reached ([1]; mouse, in vivo): activate the AhR pathway in the four cell sub-populations within a period of less than one week
- AhR activation in the standard EROD assay, % of the level of induction seen with 0.01 μM TCDD (AhR (CYP1A1 induction)): 10-20%
- half-life [4]: less than 45 mins
- Blood level by HPLC [5]: < 5 nM
- Sebosuppressive activity in man (reduction in sebum) (sebum): strongest sebosuppressive activity in man; also recorded: active in reducing sebum

SMILES: O=c1c2ccccc2nc2n1CCc1c-2[nH]c2ccccc12 [NSA 1, 8,13-Dihydroindolo[2′,3′:3,4]pyrido[2,1-b]quinazolin-5(7H)-one]
- Activation of the AhR pathway (CYP1A1 staining) in the sebaceous cell sub-populations, stage reached ([1]; mouse, in vivo): activates the AhR pathway in two of the cell sub-populations in mice
- Sebosuppressive activity in man (reduction in sebum) (sebum): potentially useful sebosuppressive activity in man when tested at the same concentrations (0.5%), although weaker than that of NSA-2
